Experiments:
Ba/F3 BCR-FGFR1 = molecular target: T1, Ba/F3 BCR-FGFR1 (Homo sapiens, UniProt P11362); experiment: Ba/F3 cell viability assay (CellTiter-Glo 2.0); assay type: cell-based; settings: Ba/F3 cell data, BCR-FGFR1 fusion, 48 hours
T1 construct: BCR (fusion partner); host or cells: Ba/F3; the other entry of the earlier key: BCR (P11274, Breakpoint cluster region protein)

RT112/84 = experiment: Cancer cell line cell viability assay (CellTiter-Glo 2.0); assay type: cell-based; settings: Homo sapiens; RT112/84 (FGFR3-fusion) cell viability, 72 hours
From the text: (§1) Experimental Purpose: To detect the change of intracellular ATP by Cell Titer-Glo® and to evaluate the inhibitory effect of the compounds on cancer cell lines by determining the in vitro IC50 value of the compounds.
(§2) Cell Titer-Glo® 2.0 Luminescent cell viability assay reagent was purchased from Promega (Madison, WI). RT112/84 and KG-1 cell lines were purchased from American Type Culture Collection (Manassas, VA). UM-UC-14 cell line was purchased from Sigma (St. Louis, MO). RT112/84, UM-UC-14, and KG-1 cells were cultured in RPMI1640 media supplemented with 10% fetal bovine serum. Cultures were maintained at 37° C. in a humidified atmosphere of 5% CO2 and 95% air.
(§3) Cell Viability Assay Procedure: Cells were plated in 96-well clear bottom/white plates (Corning #3903) at 10,000 cells/well in 100 μl of media, incubated overnight. The next day, test compound DMSO stock solutions were made at 10 mM and 2 μM final concentration.
(§4) Compounds were then added to cells in a 9-dose, […] dilution series starting at 30 μM with an HP 300e Digital Dispenser (each dose was applied in triplicate). DMSO was backfilled to each well up to 301 nL total volume of test compound+DMSO, and a total of 301 nL DMSO was added to a control/no test compound well in triplicate. The cells in cell culture plates were incubated with the compounds at 37° C. and 5% CO2 for 72 hours. Then 50 μl of Cell Titer Glo 2.0 reagent was added to each well of the cell culture plates. The contents were covered from light and mixed on an orbital shaker at room temperature for 10 min.
(§5) Luminescence was recorded by a Synergy H1 Microplate Reader (Biotek, Winooski, VT). Cells were assessed as a percentage of DMSO only treated control cells. Curves were plotted and IC50 values were calculated using the GraphPad Prism 8 program based on a sigmoidal dose-response equation (4 parameter).

KG-1 = experiment: as above; assay type: cell-based; settings: Homo sapiens; KG-1 (FGFR1-fusion) cell viability, 72 hours
From the text: as §1, §2, §3, §4, §5

KatoIIII = experiment: as above; assay type: cell-based; settings: 72 hours
Ba/F3 ETV5-FGFR4 = molecular target: T2, Ba/F3 ETV5-FGFR4 (Homo sapiens, UniProt P22455); experiment: Ba/F3 cell viability assay (CellTiter-Glo 2.0); assay type: cell-based; settings: Ba/F3 cell data, ETV5-FGFR4 fusion, 48 hours
T2 construct: host or cells: Ba/F3; the other entry of the earlier key: ETV5 (P41161, ETS translocation variant 5)
T2 sequence (P22455 467-755 limits assumed): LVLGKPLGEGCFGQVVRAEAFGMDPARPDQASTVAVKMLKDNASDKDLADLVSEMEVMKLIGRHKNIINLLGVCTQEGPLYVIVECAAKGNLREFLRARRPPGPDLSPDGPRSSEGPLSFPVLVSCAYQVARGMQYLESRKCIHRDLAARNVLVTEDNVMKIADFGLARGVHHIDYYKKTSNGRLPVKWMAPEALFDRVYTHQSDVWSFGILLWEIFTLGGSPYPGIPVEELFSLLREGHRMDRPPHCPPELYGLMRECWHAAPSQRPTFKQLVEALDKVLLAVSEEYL
From the text: Experimental Purpose: Recombinant kinase fusions are transduced into parental Ba/F3, which becomes dependent upon this constitutive kinase activity for IL3-independent survival. Inhibition of kinase activity leads to cell death, which is monitored using CellTiter-Glo® 2.0 (Promega) which measures intracellular ATP concentration that in turn serves as a marker for viability. BCR-FGFR1 Ba/F3, BCR-FGFR2 and FGFR3-BAIAP2L1 Ba/F3 were obtained from Advanced Cellular Dynamics (Seattle, WA). ETV6-FGFR4 was obtained from Kyinno (Waltham, MA).
Cell Viability Assay Procedure: Cell Titer-Glo® 2.0 Luminescent cell viability assay reagent was purchased from Promega (Madison, WI). Ba/F3 cell lines were cultured in RPMI1640 media supplemented with 10% fetal bovine serum. Cultures were maintained at 37° C. in a humidified atmosphere of 5% CO2 and 95% air.
Cells were plated in 96-well clear bottom/white plates (Corning #3903) at 10,000 cells/well in 100 μl of media, incubated overnight. The next day, test compound DMSO stock solutions were made at 10 mM and 2 μM final concentration. Compounds were then added to cells in a 9-dose, 10-fold dilution series starting at 30 μM with an HP 300e Digital Dispenser (each dose was applied in triplicate). DMSO was backfilled to each well up to 301 nL total volume of test compound+DMSO, and a total of 301 nL DMSO was added to a control/no test compound well in triplicate. The cells in cell culture plates were incubated with the compounds at 37° C. and 5% CO2 for 48 hours. Then 50 μl of Cell Titer Glo 2.0 reagent was added to each well of the cell culture plates. The contents were covered from light and mixed on an orbital shaker at room temperature for 10 min. Luminescence was recorded by a Synergy H1 Microplate Reader (Biotek, Winooski, VT). Cells were assessed as a percentage of DMSO only treated control cells. Curves were plotted and IC50 values were calculated using the GraphPad Prism 8 program based on a sigmoidal dose-response equation (4 parameter).

FGFR1 = molecular target: T3, FGFR1 (Homo sapiens, UniProt P11362); experiment: Kinase binding assay (Kd), kinase-tagged T7 phage, affinity beads, qPCR; settings: in vitro binding assay, 11-point 3-fold dilution series
T3 construct: made in house; host or cells: E. coli (BL21-derived) infected with T7 phage
T3 sequence (P11362 22-822): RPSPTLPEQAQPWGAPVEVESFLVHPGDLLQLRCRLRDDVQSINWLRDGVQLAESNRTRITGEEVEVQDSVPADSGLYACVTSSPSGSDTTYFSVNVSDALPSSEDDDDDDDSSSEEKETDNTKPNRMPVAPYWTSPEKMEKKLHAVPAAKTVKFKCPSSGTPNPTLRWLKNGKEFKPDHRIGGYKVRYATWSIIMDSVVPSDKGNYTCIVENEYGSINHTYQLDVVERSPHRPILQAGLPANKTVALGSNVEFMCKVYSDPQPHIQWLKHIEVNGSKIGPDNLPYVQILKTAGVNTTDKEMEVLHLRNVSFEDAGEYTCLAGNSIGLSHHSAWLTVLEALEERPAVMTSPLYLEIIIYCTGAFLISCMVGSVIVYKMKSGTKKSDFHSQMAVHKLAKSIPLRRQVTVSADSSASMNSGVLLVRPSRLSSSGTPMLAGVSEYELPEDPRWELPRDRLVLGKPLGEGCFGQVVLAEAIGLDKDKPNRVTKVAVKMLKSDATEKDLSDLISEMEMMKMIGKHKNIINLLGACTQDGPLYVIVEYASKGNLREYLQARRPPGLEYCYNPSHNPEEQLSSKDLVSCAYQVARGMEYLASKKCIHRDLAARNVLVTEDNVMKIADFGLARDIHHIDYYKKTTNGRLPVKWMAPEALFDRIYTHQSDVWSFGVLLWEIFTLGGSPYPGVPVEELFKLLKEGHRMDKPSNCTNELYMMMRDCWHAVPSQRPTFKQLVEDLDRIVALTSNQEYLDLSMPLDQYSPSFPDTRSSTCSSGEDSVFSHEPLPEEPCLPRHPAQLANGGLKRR
Procedure: (§6) Kinase-tagged T7 phage strains were prepared in an E. coli host derived from the BL21 strain. E. coli were grown to log-phase and infected with T7 phage and incubated with shaking at 32° C. until lysis. The lysates were centrifuged and filtered to remove cell debris. Streptavidin-coated magnetic beads were treated with biotinylated small molecule ligands for 30 minutes at room temperature to generate affinity resins for kinase assays. The liganded beads were blocked with excess biotin and washed with blocking buffer SeaBlock (Pierce), 1% BSA, 0.05% Tween 20, 1 mM DTT to remove unbound ligand and to reduce non-specific binding. Binding reactions were assembled by combining kinases, liganded affinity beads, and test compounds in 1× binding buffer (20% SeaBlock, 0.17×PBS, 0.05% Tween 20, 6 mM DTT).
(§7) Test compounds were prepared as 111× stocks in 100% DMSO. Kds were determined using an 11-point 3-fold compound dilution series with three DMSO control points. All compounds for Kd measurements are distributed by acoustic transfer (non-contact dispensing) in 100% DMSO. The compounds were then diluted directly into the assays such that the final concentration of DMSO was 0.9%. All reactions performed in polypropylene 384-well plate. Each was a final volume of 0.02 ml. The assay plates were incubated at room temperature with shaking for 1 hour and the affinity beads were washed with wash buffer (1×PBS, 0.05% Tween 20). The beads were then re-suspended in elution buffer (1×PBS, 0.05% Tween 20, 0.5 μM non-biotinylated affinity ligand) and incubated at room temperature with shaking for 30 minutes. The kinase concentration in the eluates was measured by qPCR.
(§8) Binding constants were calculated with a standard dose-response curve using the Hill equation: […]
(§9) The Hill Slope was set to −1. Curves were fitted using a non-linear least square fit with the Levenberg-Marquardt algorithm.

FGFR3 (V555M) = molecular target: T4, FGFR3 (V555M) (Homo sapiens, UniProt P22607, V555M); experiment: as above; settings: in vitro binding assay, 11-point 3-fold dilution series
T4 construct: made in house; host or cells: E. coli (BL21-derived) infected with T7 phage
T4 sequence (P22607 23-806 V555M): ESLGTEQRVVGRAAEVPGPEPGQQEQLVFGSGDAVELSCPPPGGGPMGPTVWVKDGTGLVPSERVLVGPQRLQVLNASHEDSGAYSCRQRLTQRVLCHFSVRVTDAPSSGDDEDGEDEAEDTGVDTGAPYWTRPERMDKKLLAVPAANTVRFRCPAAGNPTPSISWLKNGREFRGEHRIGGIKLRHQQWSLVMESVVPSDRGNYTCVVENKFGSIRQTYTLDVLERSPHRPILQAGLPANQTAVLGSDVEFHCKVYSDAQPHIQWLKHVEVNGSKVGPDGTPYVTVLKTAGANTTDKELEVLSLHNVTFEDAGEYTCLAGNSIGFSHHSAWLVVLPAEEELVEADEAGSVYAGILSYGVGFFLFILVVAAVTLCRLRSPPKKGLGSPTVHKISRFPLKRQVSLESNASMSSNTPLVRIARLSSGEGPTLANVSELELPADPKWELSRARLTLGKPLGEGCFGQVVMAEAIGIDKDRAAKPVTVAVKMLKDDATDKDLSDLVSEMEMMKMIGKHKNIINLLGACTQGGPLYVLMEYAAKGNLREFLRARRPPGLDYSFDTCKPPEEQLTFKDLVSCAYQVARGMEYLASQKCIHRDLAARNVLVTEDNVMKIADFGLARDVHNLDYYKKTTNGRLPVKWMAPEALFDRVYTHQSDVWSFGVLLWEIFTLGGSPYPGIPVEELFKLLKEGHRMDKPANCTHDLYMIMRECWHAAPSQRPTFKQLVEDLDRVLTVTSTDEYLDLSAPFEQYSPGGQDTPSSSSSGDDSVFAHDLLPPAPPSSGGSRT
Procedure: as §6, §7, §8, §9

FGFR4 = molecular target: T5, FGFR4 (Homo sapiens, UniProt P22455); experiment: as above; settings: in vitro binding assay, 11-point 3-fold dilution series
T5 construct: made in house; host or cells: E. coli (BL21-derived) infected with T7 phage
T5 sequence (P22455 22-802): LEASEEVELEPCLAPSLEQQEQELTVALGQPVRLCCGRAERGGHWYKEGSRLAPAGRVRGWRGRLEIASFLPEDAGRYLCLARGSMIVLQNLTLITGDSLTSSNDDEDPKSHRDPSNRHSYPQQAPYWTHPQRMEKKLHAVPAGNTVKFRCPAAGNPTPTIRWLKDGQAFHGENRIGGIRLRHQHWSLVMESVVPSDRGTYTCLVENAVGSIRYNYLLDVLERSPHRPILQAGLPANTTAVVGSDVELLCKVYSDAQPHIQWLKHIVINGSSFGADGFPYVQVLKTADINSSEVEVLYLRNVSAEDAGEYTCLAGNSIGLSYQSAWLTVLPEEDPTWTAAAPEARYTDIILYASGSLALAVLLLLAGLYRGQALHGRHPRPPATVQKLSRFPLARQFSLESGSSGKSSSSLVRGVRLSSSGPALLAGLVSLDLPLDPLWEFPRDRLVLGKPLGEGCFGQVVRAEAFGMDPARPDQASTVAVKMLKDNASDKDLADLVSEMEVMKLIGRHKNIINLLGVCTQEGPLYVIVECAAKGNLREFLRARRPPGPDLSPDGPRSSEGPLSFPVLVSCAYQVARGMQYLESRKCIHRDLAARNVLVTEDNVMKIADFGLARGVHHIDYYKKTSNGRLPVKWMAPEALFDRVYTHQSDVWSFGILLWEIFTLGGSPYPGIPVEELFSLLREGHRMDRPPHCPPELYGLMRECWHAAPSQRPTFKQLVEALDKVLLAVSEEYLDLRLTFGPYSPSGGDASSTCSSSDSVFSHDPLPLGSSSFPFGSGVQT
Procedure: as §6, §7, §8, §9

FGFR2 = molecular target: T6, FGFR2 (Homo sapiens, UniProt P21802); experiment: as above; settings: in vitro binding assay, 11-point 3-fold dilution series
T6 construct: made in house; host or cells: E. coli (BL21-derived) infected with T7 phage
T6 sequence (P21802 22-821): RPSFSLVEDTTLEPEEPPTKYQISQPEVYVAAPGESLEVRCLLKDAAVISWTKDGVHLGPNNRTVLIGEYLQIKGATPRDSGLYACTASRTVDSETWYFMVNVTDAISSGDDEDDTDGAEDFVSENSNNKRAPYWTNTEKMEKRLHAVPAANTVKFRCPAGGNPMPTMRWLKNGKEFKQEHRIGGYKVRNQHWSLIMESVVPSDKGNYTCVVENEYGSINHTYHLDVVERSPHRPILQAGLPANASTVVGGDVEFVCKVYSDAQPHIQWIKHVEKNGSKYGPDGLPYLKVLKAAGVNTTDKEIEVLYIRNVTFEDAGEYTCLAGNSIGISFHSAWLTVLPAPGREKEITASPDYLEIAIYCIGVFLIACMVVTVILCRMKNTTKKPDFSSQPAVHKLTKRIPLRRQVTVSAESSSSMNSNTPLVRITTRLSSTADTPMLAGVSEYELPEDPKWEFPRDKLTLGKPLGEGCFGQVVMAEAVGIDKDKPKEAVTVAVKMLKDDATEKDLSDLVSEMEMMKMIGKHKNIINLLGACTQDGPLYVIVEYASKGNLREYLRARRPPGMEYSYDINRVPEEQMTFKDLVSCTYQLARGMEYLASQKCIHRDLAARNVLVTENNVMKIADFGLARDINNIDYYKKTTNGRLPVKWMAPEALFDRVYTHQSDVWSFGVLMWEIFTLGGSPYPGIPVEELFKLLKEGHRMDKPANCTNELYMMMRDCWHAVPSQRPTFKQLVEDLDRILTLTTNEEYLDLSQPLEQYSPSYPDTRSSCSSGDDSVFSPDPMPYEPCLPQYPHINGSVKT
Procedure: as §6, §7, §8, §9

FGFR3 = molecular target: T7, FGFR3 (Homo sapiens, UniProt P22607); experiment: as above; settings: in vitro binding assay, 11-point 3-fold dilution series
T7 construct: made in house; host or cells: E. coli (BL21-derived) infected with T7 phage
T7 sequence (P22607 23-806): as the sequence (P22607 23-806 V555M) above, with M533V counted along it
Procedure: as §6, §7, §8, §9

Ba/F3 FGFR3-BAIAP2L1 = molecular target: T8, Ba/F3 FGFR3-BAIAP2L1 (Homo sapiens, UniProt P22607); experiment: Ba/F3 cell viability assay (CellTiter-Glo 2.0); assay type: cell-based; settings: Ba/F3 cell data, FGFR3-BAIAP2L1 fusion, 48 hours
T8 construct: BAIAP2L1 (fusion partner, Q9UHR4 if human); host or cells: Ba/F3; the other entry of the earlier key: BAIAP2L1 (Q9UHR4, BAR/IMD domain-containing adapter protein 2-like 1)
T8 sequence (P22607 397-758 limits assumed): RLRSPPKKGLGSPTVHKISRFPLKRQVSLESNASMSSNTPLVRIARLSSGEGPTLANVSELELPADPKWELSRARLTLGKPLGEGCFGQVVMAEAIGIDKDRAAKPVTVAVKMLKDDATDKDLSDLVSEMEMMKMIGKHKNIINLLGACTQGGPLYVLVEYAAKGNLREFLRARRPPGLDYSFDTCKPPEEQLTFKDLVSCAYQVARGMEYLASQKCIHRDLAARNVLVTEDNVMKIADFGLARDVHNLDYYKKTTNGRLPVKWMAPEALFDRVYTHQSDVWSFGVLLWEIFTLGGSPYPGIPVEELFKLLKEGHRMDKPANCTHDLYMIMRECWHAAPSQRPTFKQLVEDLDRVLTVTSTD

Ba/F3 BCR-FGFR2 = molecular target: T9, Ba/F3 BCR-FGFR2 (Homo sapiens, UniProt P21802); experiment: Ba/F3 cell viability assay (CellTiter-Glo 2.0); assay type: cell-based; settings: Ba/F3 cell data, BCR-FGFR2 fusion, 48 hours
T9 construct: BCR (fusion partner); host or cells: Ba/F3; the other entry of the earlier key: BCR (P11274, Breakpoint cluster region protein)
T9 sequence (P21802 481-770 limits assumed): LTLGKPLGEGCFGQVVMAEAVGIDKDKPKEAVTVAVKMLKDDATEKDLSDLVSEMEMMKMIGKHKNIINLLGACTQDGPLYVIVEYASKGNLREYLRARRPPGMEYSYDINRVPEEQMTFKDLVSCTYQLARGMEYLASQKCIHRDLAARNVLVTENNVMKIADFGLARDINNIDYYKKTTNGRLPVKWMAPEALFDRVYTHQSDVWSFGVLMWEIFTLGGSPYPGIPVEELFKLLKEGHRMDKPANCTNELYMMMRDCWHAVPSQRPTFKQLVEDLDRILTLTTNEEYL

T1 sequence (P11362 478-767 limits assumed): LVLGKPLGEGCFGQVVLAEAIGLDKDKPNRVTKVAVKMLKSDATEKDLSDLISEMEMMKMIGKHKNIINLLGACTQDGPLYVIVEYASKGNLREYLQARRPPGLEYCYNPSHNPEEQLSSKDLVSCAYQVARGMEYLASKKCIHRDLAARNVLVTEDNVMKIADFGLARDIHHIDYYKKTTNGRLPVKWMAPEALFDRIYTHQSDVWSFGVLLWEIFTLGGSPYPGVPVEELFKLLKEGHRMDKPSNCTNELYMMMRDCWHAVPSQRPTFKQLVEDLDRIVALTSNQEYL

Row | IC50 (RT112/84) [nM] | IC50 (KG-1) [nM] | IC50 (KatoIIII) [nM] | Kd (FGFR1) [nM] | Kd (FGFR3 (V555M)) [nM] | Kd (FGFR4) [nM] | Kd (FGFR2) [nM] | Kd (FGFR3) [nM] | Compound | Kd (Ba/F3 BCR-FGFR1) [nM] | Kd (Ba/F3 ETV5-FGFR4) [nM] | Kd (Ba/F3 FGFR3-BAIAP2L1) [nM] | Kd (Ba/F3 BCR-FGFR2) [nM]
1 | 100 to 250 | ≥ 1000 | 100 to 250 | 100 to 250 | 0.1 to 100 | 100 to 250 | 0.1 to 100 | 0.1 to 100 | C=CC(=O)N1CCC(n2ncc(-c3cc(O[C@H](CO)c4ccc(F)cn4)c4c(C#N)cnn4c3)c2C)CC1 [Example 1, 4-[(1S)-1-(5-fluoro-2-pyridyl)-2-hydroxy-ethoxy]-6-[5-methyl-1-(1-prop-2-enoyl-4-piperidyl)pyrazol-4-yl]pyrazolo[1,5-a]pyridine-3-carbonitrile] | 250 to 1000 | 250 to 1000 | 0.1 to 100 | 100 to 250
2 | ≥ 1000 | ≥ 1000 | 250 to 1000 | 250 to 1000 | 250 to 1000 | ≥ 1000 | 250 to 1000 | 250 to 1000 | C=CC(=O)N1CCC(n2ncc(-c3cc(O[C@@H](CO)c4ccc(F)cn4)c4c(C#N)cnn4c3)c2C)CC1 [Example 2, 4-[(1R)-1-(5-fluoro-2-pyridyl)-2-hydroxy-ethoxy]-6-[5-methyl-1-(1-prop-2-enoyl-4-piperidyl)pyrazol-4-yl]pyrazolo[1,5-a]pyridine-3-carbonitrile] | ≥ 1000 | ≥ 1000 | 250 to 1000 | ≥ 1000
3 | 100 to 250 | 100 to 250 | 100 to 250 | 0.1 to 100 | 0.1 to 100 | 0.1 to 100 | 0.1 to 100 | 0.1 to 100 | C=CC(=O)N1CCC2(CC1)CC(n1ncc(-c3cc(O[C@H](CO)c4ccccn4)c4c(C#N)cnn4c3)c1C)C2 [Example 8, (S)-6-(1-(7-acryloyl-7-azaspiro[3.5]nonan-2-yl)-5-methyl-1H-pyrazol-4-yl)-4-(2-hydroxy-1-(pyridin-2-yl)ethoxy)pyrazolo[1,5-a]pyridine-3-carbonitrile] | 100 to 250 | 250 to 1000 | 0.1 to 100 | 100 to 250

Reference: patent US20260209223A1, “FGFR3 INHIBITOR COMPOUNDS” (TYRA BIOSCIENCES, INC., priority 2022, published 2026)
